Results published in patent publication US12110284B2, “Fasoracetam crystalline forms” (The Children's Hospital of Philadelphia, priority 2018, dated 2024).
Where two headings read alike, the source gives them in different places.

Columns and labels:
[1] = Storage of the anhydrate at ambient conditions, conversion tracked daily via XRPD; type: physicochemical; details: 1-week period
[2] = type: physicochemical; details: for first onset of weight loss / weight loss continues up to / water loss (initial weight loss): TGA; for first onset of weight loss / weight loss continues up to: nitrogen flow; for water loss (initial weight loss): equivalents of water
Description: TGA measurements were carried out on a METTLER TOLEDO TGA/SDTA 851e. Samples were placed in open aluminum oxide crucible. All experiments were performed under nitrogen flow.
A thermal analysis of all forms was performed in order to characterize the fasoracetam forms and to identify the stability of different forms. TGA measurements (FIG. 21) clearly mark the difference between the hydrated and anhydrated form. […] The weight loss continues up to 185° C. When the temperature is increased further, degradation occurs, starting around 260° C. The initial loss corresponds to 1.1 equivalent of water, as expected for a 1:1 stoichiometric hydrate. The slight deviation from the ideal stoichiometric ratio can be attributed to the crystallization conditions (the bulk material was obtained from an aqueous solution and the water remaining on the crystal surface or trapped between crystals is likely to cause the deviation observed). […] Analogous to Form I, degradation occurs which starts around 268° C. The observed water loss here is 0.9 equivalent, which is expected for a stoichiometric hydrate.

[3] = Hygroscopicity of the solid form; type: physicochemical
Description: In further embodiments of the disclosure, R-fasoracetam anhydrate is provided. […] This lack of water of crystallization is a characterizing feature of the anhydrate of R-fasoracetam with respect to Form I or Form II. FIG. 13 is an XRPD pattern of the anhydrate and any one or more of the peaks in that XRPD pattern may be used to characterize the anhydrate. Thus, one or more peaks at about 8.9°2θ, about 13.1°2θ, about 15.2°2θ, about 17.8°2θ, about 18.7°2θ, about 20.3°2θ, and about 22.7°2⊖ may be used to characterize the anhydrate form of R-fasoracetam. The anhydrate has an onset melting temperature at about 94° C. Thus, in another embodiment, an onset melting point of about 94° C. together with one or more peaks at about 8.9°2θ, about 13.1°2θ, about 15.2°2θ, about 17.8°2θ, about 18.7°2θ, about 20.3°2θ, and about 22.7°2⊖ may be used to characterize R-fasoracetam anhydrate. R-fasoracetam anhydrate may be further characterized by a diffraction pattern substantially the same as that of FIG. 13. A DSC thermogram of R-fasoracetam anhydrate appears in FIG. 25. The ramp rate was at 10° C. per minute. The R-fasoracetam anhydrate being hygroscopic, the sample in FIG. 25 was obtained by keeping R-fasoracetam monohydrate Form I under vacuum for a prolonged period at a temperature of 65° C.

[4] = DSC enthalpy of fusion of fasoracetam forms; type: physicochemical
Description: DSC measurements were performed on a DSC 821 METTLER TOLEDO under continuous nitrogen flow. Perforated aluminium crucibles were used for analysis. Onsets were determined by manually constructing a tangent to the peak and a prolongation of the baseline. Total enthalpies were calculated by manual peak integration using a linear interpolation between the initial and final temperatures of integration. To obtain the normalized enthalpy, the total enthalpy was divided by the total sample mass. Ramp rates were typically done at 5° C./minute Using Burger's Heat of Fusion rule for both hydrated forms (Table 6), they should be monotropically related. Because both hydrates were obtained from different solvents (water and methanol for Forms I and II, respectively), a slurrying experiment where both vials were seeded with the opposite hydrate was performed and left under these conditions for 1 week.

[5] = Slurrying experiment of both hydrates seeded with the opposite hydrate, XRPD analysis; type: physicochemical; details: water and methanol slurries seeded with the opposite hydrate, 1 week
Description: Using Burger's Heat of Fusion rule for both hydrated forms (Table 6), they should be monotropically related. Because both hydrates were obtained from different solvents (water and methanol for Forms I and II, respectively), a slurrying experiment where both vials were seeded with the opposite hydrate was performed and left under these conditions for 1 week.

[6] = cited from earlier work
mGluRs = details: in vitro; cited from earlier work

degradation starts [2]	first onset of weight loss [2]	hygroscopicity [3]	Enthalpy of Fusion (ΔHfus, J/g) [4]	weight loss continues up to [2]	water loss (initial weight loss) [2]	Enthalpy of Fusion (ΔHfus, J/g) ([4]; listed as Fasoracetam hydrate I)	Enthalpy of Fusion (ΔHfus, J/g) ([4]; listed as Fasoracetam hydrate II)	SMILES	conversion of solid form on storage [1]	solid form stability in slurry [5]	treatment of further disorders ([6]; subjects having ADHD and 22q11.2 Deletion Syndrome, anxiety, conduct disorder, Tourette's syndrome)	treatment of ADHD ([6]; subjects having a genetic alteration in an mGluR network gene, clinical trial)	activity against mGluRs (mGluRs)
around 260 °C	41 °C	–	–	185 °C	1.1 equivalent	-120.9 J/g	–	O=C1CC[C@H](C(=O)N2CCCCC2)N1 [Form I, R-fasoracetam monohydrate Form I, reference compound]	–	–	–	–	–
around 268 °C	41 °C	–	–	183 °C	0.9 equivalent	–	-79.0 J/g	O=C1CC[C@H](C(=O)N2CCCCC2)N1 [Form II, R-fasoracetam monohydrate Form II]	–	complete solution mediated polymorphic transition from Form II to Form I	–	–	–
–	–	–	–	–	–	–	–	O=C1CC[C@H](C(=O)N2CCCCC2)N1 [fasoracetam, R-fasoracetam]	–	–	successful	successfully treated	nonselective activator against all classes of mGluRs

SMILES	degradation starts [2]	first onset of weight loss [2]	hygroscopicity [3]	Enthalpy of Fusion (ΔHfus, J/g) [4]	weight loss continues up to [2]	water loss (initial weight loss) [2]	Enthalpy of Fusion (ΔHfus, J/g) ([4]; listed as Fasoracetam hydrate I)	Enthalpy of Fusion (ΔHfus, J/g) ([4]; listed as Fasoracetam hydrate II)	conversion of solid form on storage [1]	solid form stability in slurry [5]	treatment of further disorders ([6]; subjects having ADHD and 22q11.2 Deletion Syndrome, anxiety, conduct disorder, Tourette's syndrome)	treatment of ADHD ([6]; subjects having a genetic alteration in an mGluR network gene, clinical trial)	activity against mGluRs (mGluRs)
O=C1CC[C@H](C(=O)N2CCCCC2)N1 [anhydrate, R-fasoracetam anhydrate]	around 260 °C	no particular weight loss up until degradation	hygroscopic	-76.7 J/g	–	–	–	–	conversion to the stable hydrate occurs at ambient conditions over a 1-week period	–	–	–	–
